US20250064886A1, “CARDIOVASCULAR AND CEREBROVASCULAR DRUG AND USE THEREOF” (HANGZHOU ADAMERCK PHARMLABS INC., priority 2021, published 2025)

Tests used:
[1] = system: arteriovenous bypass thrombosis in rats; assay: Arteriovenous bypass thrombosis in rats (Example 4); format: in vivo, rat
Method: Grouping: Divided into 5 groups, with 10 animals in each group. The model control group was given with solvent, and the test drug compound (1) and the positive control were given intravenously once a day for consecutive 3 d. The modeling started 30 min after the last dose.
Model preparation: 50 SD male rats were anesthetized with sodium pentobarbital at a dose of 60 mg/kg via ip. The rat was fixed in the supine position, and the skin was incised at the midline of the neck; the fascia and muscle tissues were separated, the left common carotid artery and the right external jugular vein were dissociated, and the arterio-venous (A-V) bypass surgery was performed using the polyethylene tubing with a built-in thread. The arterial clip was used to clamp the proximal end of the carotid artery, and one end of the polyethylene tubing was inserted into the artery, and another end was inserted into the vein, thereby completing the bypass surgery. 30 minutes after the last dose, the arterial clip was opened, and blood flowed from the left common carotid artery to the right external jugular vein through the bypass tubing, and the blood flow formed a bypass circulation, and the thrombus was taken out 15 min later.
Detection index: the blood flow was open after 15 min, the thread was taken out, the residual liquid was sucked dry, the thread attached with thrombus was weighed and the wet weight of thrombus was calculated; the dry weight of thrombus was weighed and calculated after bake-drying in the oven at 50° C. Thrombosis inhibition rate was calculated. Tails were clipped at the end of the experiment to detect bleeding time.

[2] = system: rats with focal cerebral ischemia (MCAO)/reperfusion; assay: Preventative administration, cerebral ischemia-reperfusion injury MCAO/R in rats (Example 5); format: in vivo, rat
Method: Experimental method: SD rats were randomly divided into six groups, i.e., pseudosurgery group, model control group, positive control drug ozagre (6 mg/kg) group, and administration drug compound (1) high-dose (67.5 mg/kg) group, medium-dose (22.5 mg/kg) group, and low-dose (7.5 mg/kg) group. The administration group was pre-administered via tail vein injection, while the pseudosurgery group and model control group were given equal volumes of physiological saline once a day for 3 consecutive days. 10 minutes after the last administration, a rat MCAO/R model was established and performed reperfusion 2 hours post ischemia. 24 hours after MCAO reperfusion, the neurobehavioral scores of rats were performed to determine their neurological function; the cerebral infarction rate and cerebral water content in rats were determined using 2,3,5-triphenyltetrazolium chloride (TTC) staining method.

rats = assay: Bleeding time in rats, tail clipping (Example 4); format: in vivo, rat
Method: Grouping: Divided into 5 groups, with 10 animals in each group. […] The modeling started 30 min after the last dose. Detection index: the blood flow was open after 15 min, the thread was taken out, the residual liquid was sucked dry, the thread attached with thrombus was weighed and the wet weight of thrombus was calculated; the dry weight of thrombus was weighed and calculated after bake-drying in the oven at 50° C. Thrombosis inhibition rate was calculated. Tails were clipped at the end of the experiment to detect bleeding time.

[3] = system: vascular endothelial injury induced thrombosis model in zebrafish; assay: Preventative effect on vascular endothelial injury induced thrombosis, ponatinib zebrafish model (Example 1); format: in vivo; conditions: 30.0 μg/mL dissolved in water
[4] = system: vascular endothelial-injury thrombosis model in zebrafish; assay: Preventative effect of compound (1) on vascular endothelial injury induced thrombosis in zebrafish (Example 3); format: in vivo; conditions: 30 μg/mL in water
Method: Experimental method: Wild-type AB strain zebrafish were treated with 4 μg/mL punatinib for 18 h to establish vascular endothelial-injury thrombosis model in zebrafish. 150 of 5 dpf wild-type AB strain zebrafish were randomly selected and placed in six-well plates with 30 fish per well (experimental group). The zebrafish were injected with compound (1) at a dose of 2.06 ng/tail, and 6.18 ng/tail, and the positive control drug acetylsalicylic acid was given by dissolving it in water with a concentration of 30 µg/mL, while the normal control group (i.e., zebrafish treated with standard dilution water) and the model control group were set up, and the volume of each well (experimental group) was 3 mL. Except for normal control group, the remaining experimental groups were all given Punatinib by dissolving it in water to induce vascular endothelial injury thrombosis model in zebrafish. The zebrafish were co-treated with compound (1) and punatinib for a period of time under incubation condition at 28° C., and then stained with o-dianisidine. After staining, 10 zebrafish were randomly selected from each group and photographed under the microscope. The intensity of cardiac erythrocyte staining in zebrafish was analyzed using NIS-Elements D 3.10 advanced image-processing software, and the preventative effect of compound (I) on vascular endothelial injury thrombosis was evaluated based on the statistical results of cardiac erythrocyte staining intensity. The preventative effect on thrombosis is calculated as follows: […]
Statistical analysis were performed using Analysis of Variance and Dunnett's t-test, and p<0.05 indicates a significant difference, providing a representative experimental plot.

[5] = 16 mg/kg i.v. once a day 3 d, in g (unit assumed)

Compound	Dry weight inhibition rate (%) ([1]; 16 mg/kg i.v.)	Wet weight inhibition rate (%) ([1]; 16 mg/kg i.v.)	Dry weight of thrombus [1, 5]	Wet weight of thrombus [1, 5]	Cerebral infarction rate (%) ([2]; 6 mg/kg tail vein, once a day 3 days before MCAO/R, 24 h after reperfusion, mean ± SD, n = 8)	Behavioral score ([2]; 6 mg/kg, preventative)	Cerebral water content (%) ([2]; 6 mg/kg, preventative, tail vein 3 days)	Bleeding time (rats; 16 mg/kg i.v.)	Effect on the bleeding time in rats, in words (rats; intravenous, compared with model control group)	Preventative effect on thrombosis (%) [3]	Cardiac erythrocyte staining intensity (pixels, mean ± SE) ([3]; n = 10)	Thromboprophylactic effect (%) [4]	Cardiac erythrocyte staining intensity (pixels, mean ± SE) ([4]; n = 10)
O=C(O)/C=C/c1ccc(Cn2ccnc2)cc1 [Ozagre, ozagrel, reference compound]	34.1%	34%	0.0054 ± 0.0018	0.0208 ± 0.0041	14.39 ± 8.14 %	1.50 ± 0.56	78.42 ± 3.73 %	740.8 ± 224 s	significantly prolonged	–	–	–	–
CC(=O)Oc1ccccc1C(=O)O [Acetylsalicylic acid, acetylsalicylic acid, reference compound]	–	–	–	–	–	–	–	–	–	101%	5345 ± 228 pixels	85%	4655 ± 136 pixels
